From publication PMC9014415, “Repositioning of a Diaminothiazole Series Confirmed to Target the Cyclin-Dependent Kinase CRK12 for Use in the Treatment of African Animal Trypanosomiasis” (Journal of Medicinal Chemistry, 2022) come the findings set out here.

Molecules are shown by their SMILES.

One experiment relates to T. congolense KONT 2/133. The experiment is described as follows: Cattle efficacy for compound 1, SC (Clinvet). It counts as in vivo, Trypanosoma congolense. As to conditions: for Animals negative for parasites / Animals positive for parasites: 5 mg/kg SC twice 12 h apart. An excerpt:
However, following the cessation of treatment, parasitaemia quickly re-emerged to such an extent that after 4 days, all calves were positive. It should be noted that in this study, calves were infected with a highly virulent T. congolense isolate known to be resistant to established anti-trypanosomal agents diminazene and isometamidium. Testing compounds in this model represents a rigorous test of efficacy; thus, the observed reduction in parasite numbers in calves dosed with compound 1 was very encouraging. […]
3.3 Cattle efficacy for compound 1 (Clinvet)
In each of the cattle efficacy studies (3.3, 3.4 and 3.5), efficacy was assessed primarily on absence of recrudescence of parasitaemia for 100 days after treatment administration together with improvements in Packed Cell Volume, body weight and clinical signs of infected compared with uninfected animals. Assessment of parasitaemia was based on phase contrast buffy coat examinations and confirmation by PCR at 100 d.
Friesian-Holstein calves, weaned for at least 2 months and with a minimum age of 4 months, housed in a fly-proof building, were infected with Trypanosoma conglense (savannah) KONT 2/133, at a dose of 110,000 parasites (study day 0) via IV infusion. The parasites were obtained from a donor calf. This isolate is resistant to diminazene (20 mg/kg) and isometamidium (1 mg/kg) in cattle, and diminazene (7 mg/kg) and isometamidium (>1 mg/kg) in mice. Calves were parasitaemic by study day 6. Calves (n = 5) were treated with compound 1 (5 mg/kg, SC, twice 12 h apart) on study […]
day at 25 mg/ml in NMP/ 2-pyrrolidinone/ PEG400 water 10/40/30/20. Control groups were comprised of un-infected calves, infected but un-treated calves (n = 6) and calves treated with diminazene (n = 3) or isometamidium (n = 3). The calves were randomised to treatments. Calves were monitored daily for parasitaemia and packed cell volume (PCV) via blood sampling and through […]
One day after treatment, 80% of the animals in the treatment group were negative for parasites.
After 3 d, 100% of the animals in the treatment groups were negative for parasites. After 5 d, 40% of the animals were positive for parasites. […]

A further experiment deals with T. b. brucei. The experiment is described as follows: In vitro drug sensitivity assay, bloodstream-form T. b. brucei. It counts as cell-based. As to conditions: Trypanosoma brucei, n = 12. As for the experimental part:
1.1 In vitro drug sensitivity assays - Trypanosoma brucei brucei
Drug sensitivity assays were carried out with bloodstream-form (BSF) T. b. brucei ‘single marker’ S427 cells grown at 37°C with 5% CO2 in HMI-9T medium,1 as previously described.2 1.2 In vitro drug sensitivity assays - Trypanosoma congolense
EC50 values for test compounds against T. congolense (IL3000 strain) were conducted as previously described3 with minor modifications.4 Briefly, trypanosome cell densities were determined using a CASY cell counter (Schärfe) and diluted to a seeding density of 2 x 105 trypanosomes/mL. […] Absorbance was read using a SpectraMax (Gemini XS) fluorescence reader at an excitation wavelength of 536 nm and an emission wavelength of 588 nm. EC50 values were determined using SOFTmax Pro 5.2 analysis software. […]
Since T. vivax cannot be cultured axenically, BSF trypanosomes were harvested from an infected mouse with high parasitemia via cardiac puncture and used directly in ex vivo assays. EC50 values were determined against T, vivax (STIB 719/ ILRAD 560) as previously described3, with minor modifications. Briefly, cell densities were determined using a Neubauer chamber and then diluted to a seeding density of 4 x 105 trypanosomes / mL. […] Absorbance was read using a SpectraMax (Gemini XS) fluorescence reader at an excitation wavelength of 536 nm and an emission wavelength of 588 nm. […]

[1] abbreviates: 5 mg/kg SC given twice at 12 h intervals.

In the case of `CC(C)CS(=O)(=O)N[C@H]1CC[C@H](Nc2nc(N)c(C(=O)c3c(F)cccc3F)s2)CC1` [Compound 1, N-((trans)-4-((4-Amino-5-(2,6-difluorobenzoyl)thiazol-2-yl)amino)cyclohexyl)-2-methylpropane-1-sulfonamide], the Parasitaemia in calves result with T. congolense KONT 2/133 (setting [1]) was “suppressed below the level of detection”. For the same compound, the “Time after cessation of treatment until all calves were positive” value with T. congolense KONT 2/133 (setting [1]) stood at 4 days. Besides, the “Animals negative for parasites” value is 100% in the experiment with T. congolense KONT 2/133 (after 3 d) and 80% in the experiment on T. congolense KONT 2/133 (one day after treatment). Also, the “Animals positive for parasites” value came out at 40% in the experiment with T. congolense KONT 2/133 (after 5 d), 80% in the experiment on T. congolense KONT 2/133 (after 6 d) and 100% in the experiment with T. congolense KONT 2/133 (after 8 days). The same compound showed an EC50 in the experiment with T. b. brucei of 1.3 nM.

As usually defined, the EC50 is the concentration that produces a half-maximal response.
